Source: US12496218B1, “Fractionated topical ocular drug delivery methods and devices for use in the same” (Bausch + Lomb Ireland Limited, priority 2019, dated 2025)

How the values were obtained:
humans [1] = experiment: Intraocular pressure (IOP) in human subjects after topical ocular micro-dosing, conventional vs fractionated; format: in vivo; conditions: FIG. 5
humans [2] = experiment: Distance corrected near visual acuity (DCNVA) in human subjects after topical ocular micro-dosing, conventional vs fractionated

SMILES: CC[C@@H]1C(=O)OC[C@@H]1Cc1cncn1C [pilocarpine]
- IOP (intraocular pressure) result, regimen B compared with regimen C (humans [1]; dose regimen B: fractionated 1% pilocarpine): performed much better
- IOP (intraocular pressure) result (humans [1]; dose regimen C: single dose of 2% pilocarpine): null IOP result
- toxic effects (humans [2]; 2% pilocarpine, double dosing (regimen D) vs single dose (regimen C)): absence of any evident toxic effects
- change from baseline DCNVA (letter score) (humans [2]; dose regimen B (fractionated 1% pilocarpine), both eyes, photopic conditions, FIG. 4, significant at 1 and 2 hours post-dosing): biggest gain from baseline at all time points
- portion of subjects who gained more than 15 letters of distance corrected near vision compared with baseline (humans [2]; dose regimen B: double (fractionated) micro-dose of 1% pilocarpine, 5 minute interval, mesopic and photopic illumination): 66.7%
- eyes that achieved 3 lines of distance corrected near vision improvement (humans [2]; dose regimen C: single non fractionated dose of 2% pilocarpine): 33.3%
- eyes that achieved 3 lines of distance corrected near vision improvement (humans [2]; dose regimen D: double dosing of 2% pilocarpine): 0%
- distance corrected near visual acuity, group B compared with group A (humans [2]; double (fractionated) dose of 1% pilocarpine (B) vs single conventional dose of 1% pilocarpine (A)): statistically significant improvement
- distance corrected near vision, regimen B compared with regimen C (same total drug amount) (humans [2]; fractionated micro-dose of 1% pilocarpine (B) vs 1 dose of 2% pilocarpine (C), mesopic and photopic): performed significantly better
